Columns and labels:
[1] = system: Sprague Dawley rats, 6-OHDA lesion; experiment: Striatal dopamine content, HPLC-EC (study 2); type: in vivo, rat; conditions: more severe (40%) lesion, vs vehicle
Description: Rats were treated with 2LS98Lac or saline (vehicle) as outlined in the Schemes in Figures 9A,B via intraperitoneal (i.p.) injection (15 mg/kg). All animals were made hemi-parkinsonian with unilateral, striatal 6-hydroxydopamine (Sigma Aldrich, St. Louis, MO) injections. After surgery, behavioral assessments were done at 2- and 4-weeks post-surgery. 24 h after the last test animals were either euthanized and whole brains were harvested for future biochemical analysis or perfused and brains collected for immunohistochemistry and stereological assessment of tyrosine hydroxylase-positive (TH+) cells remaining in the SNc. In study 1: n = 16 each group were included, and all underwent the behavioral analysis: n = 16, and for the stereology in the SNc, n = 8 each group was used. In study 2: n = 23 each group were included. […] In the 2LS98Lac group, one video at 4 weeks was lost, reducing n = 22 in this specific analysis, and for the stereology, 2 brains were damaged during processing and could not be included in the stereology of the SNc, therefore […]. For biochemical subanalyses, n = 8 each group. For the microglial morphology subanalysis n = 7 each group.
FIGURE 9 | Evaluation of neuroprotection of the PACAP glycopeptide 2LS98Lac in rat Parkinson’s disease models. (A) Scheme for study 1, using a mild PD lesion. (B) Scheme for study 2, using a moderate PD lesion. […]

[2] = system: C57BL/6 mice, diffuse TBI; experiment: Novel object recognition after TBI; type: in vivo, mouse; conditions: 10 mg/kg i.p. 30 min prior to TBI, 14 DPI
Description: 30 min prior to TBI or sham injury, mice were randomly assigned to a therapeutic group and received an intraperitoneal injection of 2LS80Mel (10 mg/kg) or sterile saline (0.25 ml). Groups were as follows: TBI-2LS80Mel n = 17; TBI-vehicle n = 17; sham n = 22 (vehicle n = 11, 2LS80Mel n = 11).
For injury induction 24 h post-surgery, mice were re-anesthetized with 5% isoflurane delivered for 3 min. The cap was removed from the injury-hub assembly and the dura was visually inspected through the hub to ensure it was intact with no debris. […] Injured mice were monitored for presence of a forearm fencing response and righting reflex times were recorded as indicators of injury severity ([Hosseini and Lifshitz, 2009]). […] After spontaneously righting, mice were placed in a heated recovery cage and monitored until they were ambulatory (approximately 5–15 min) before being returned to their piezoelectric sleep cage (see below). […]
Cognitive impairment was tested at 14 DPI using the novel object recognition (NOR) test as previously published ([Rowe et al., 2014b]; [Harrison et al., 2015]; [Saber et al., 2021]). […] For testing, the times spent actively investigating the novel and familiar object were quantified. […] If an animal climbed onto an object and sniffed into the air, this time was not calculated into the exploration of the novel object.

SMILES | Striatal DA content [1] | Novel object recognition (cognitive deficits) [2]
[2H]C([2H])([2H])C([2H])(C([2H])([2H])[2H])[C@]([2H])(NC(=O)[C@H](C)NC(=O)[C@H](C)NC(=O)[C@H](CC(C)C)NC(=O)[C@H](Cc1ccc(O)cc1)NC(=O)[C@H](CCCCN)NC(=O)[C@H](CCCCN)NC(=O)[C@@]([2H])(NC(=O)[C@H](C)NC(=O)[C@H](CC(C)C)NC(=O)[C@H](CCC(N)=O)NC(=O)[C@H](CCCCN)NC(=O)[C@H](CCCNC(=N)N)NC(=O)[C@H](Cc1ccc(O)cc1)NC(=O)[C@H](CCCNC(=N)N)NC(=O)[C@H](CO)NC(=O)[C@H](Cc1ccc(O)cc1)NC(=O)[C@H](CO)NC(=O)[C@H](CC(=O)O)NC(=O)[C@@H](NC(=O)[C@H](Cc1ccccc1)NC(=O)[C@@H](NC(=O)CNC(=O)[C@H](CC(=O)O)NC(=O)[C@H](CO)NC(=O)[C@@H](N)Cc1c[nH]cn1)[C@@H](C)CC)[C@@H](C)O)C([2H])(C([2H])([2H])[2H])C([2H])([2H])[2H])C(=O)N[C@@H](CC(C)C)C(=O)N[C@@H](CO[C@@H]1O[C@H](CO)[C@@H](O[C@@H]2O[C@H](CO)[C@H](O)[C@H](O)[C@H]2O)[C@H](O)[C@H]1O)C(N)=O [Compound 2LS98Lac] | no significant difference | –
CC[C@H](C)[C@H](NC(=O)CNC(=O)[C@H](CC(=O)O)NC(=O)[C@H](CO)NC(=O)[C@@H](N)Cc1c[nH]cn1)C(=O)N[C@@H](Cc1ccccc1)C(=O)N[C@H](C(=O)N[C@@H](CC(=O)O)C(=O)N[C@@H](CO)C(=O)N[C@@H](Cc1ccc(O)cc1)C(=O)N[C@@H](CO)C(=O)N[C@@H](CCCNC(=N)N)C(=O)N[C@@H](Cc1ccc(O)cc1)C(=O)N[C@@H](CCCNC(=N)N)C(=O)N[C@@H](CCCCN)C(=O)N[C@@H](CCC(N)=O)C(=O)N[C@@H](CC(C)C)C(=O)N[C@@H](C)C(=O)N[C@H](C(=O)N[C@@H](CCCCN)C(=O)N[C@@H](CCCCN)C(=O)N[C@@H](Cc1ccc(O)cc1)C(=O)N[C@@H](CC(C)C)C(=O)N[C@@H](C)C(=O)N[C@@H](C)C(=O)N[C@H](C(=O)N[C@@H](CC(C)C)C(=O)N[C@@H](CO[C@@H]1O[C@H](CO[C@H]2O[C@H](CO)[C@H](O)[C@H](O)[C@H]2O)[C@@H](O)[C@H](O)[C@H]1O)C(N)=O)C(C)C)C(C)C)[C@@H](C)O [Compound 2LS80Mel] | – | no TBI-induced cognitive deficits among any group

Reference: paper PMC8887546, “Design and Synthesis of Brain Penetrant Glycopeptide Analogues of PACAP With Neuroprotective Potential for Traumatic Brain Injury and Parkinsonism” (Frontiers in drug discovery, 2022)
